Test results as given in ChEMBL document CHEMBL1201862, “PubChem BioAssay data set” (2004).
Calls of active or inactive are those of the source.

Tests used:
[1] = tested on: HEK293; test: cells; type: functional, cell-based; details: Homo sapiens
[2] = tested on: H4; test: Luminescence Cell-Based Dose Response HTS to Identify Activators of 5'UTR Stem-Loop Driven Prion Protein mRNA Translation in H4 Neuroglioblastoma Cells. [Related pubchem assays: 1829 (Project Summary), 1814 (Primary HTS)]; type: functional; details: Homo sapiens
[3] = Luminescence Cell-Based Dose Response HTS to Identify Activators of Luciferase Translation or Activity in H4 […] Cells. [Related pubchem assays: 1829 (Project Summary), 1814 (Primary HTS)]; type: functional
[4] = biological target: Nuclear receptor subfamily 0 group B member 1 (Homo sapiens, UniProt P51843); test: Luminescence-based cell-based high throughput dose response assay for inhibitors of the orphan nuclear receptor subfamily 0, group B, member 1 (DAX1; NR0B1). [Related pubchem assays (depositor defined):AID504766, AID504790]; type: functional
[5] = Luminescence Cell-Based Dose Confirmation HTS to Identify Activators of 5'UTR Stem-Loop Driven Alpha-Synuclein mRNA Translation in H4 Neuroglioblastoma Cells. [Related pubchem assays: 1829 (Project Summary), 1814 (Primary HTS)]; type: functional
[6] = biological target: Beta-adrenergic receptor kinase 1 (Homo sapiens, UniProt P25098); test: blockers of aptamer binding to GRK2 – biochemical, flow cytometry beads, FAM-aptamer, powder set 1, dose response (AID 588720)
[7] = biological target: T1, Carboxy-terminal domain RNA polymerase II polypeptide A small phosphatase 1 (Homo sapiens, UniProt Q9GZU7); test: CTDSP1 inhibitors, concentration-response, biochemical, absorbance readout, ultra-high-throughput screen actives (AID 540297); type: functional
T1 sequence (Q9GZU7 whole entry): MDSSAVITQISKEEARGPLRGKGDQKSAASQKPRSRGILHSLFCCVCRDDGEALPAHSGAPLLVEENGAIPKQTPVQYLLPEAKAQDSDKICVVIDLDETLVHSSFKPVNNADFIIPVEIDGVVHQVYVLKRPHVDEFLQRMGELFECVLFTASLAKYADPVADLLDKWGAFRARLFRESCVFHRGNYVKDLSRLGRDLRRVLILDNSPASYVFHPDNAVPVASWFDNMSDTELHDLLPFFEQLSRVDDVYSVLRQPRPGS

[8] = tested on: HEK293; test: cells; details: Homo sapiens
[9] = tested on: HEK293; test: cells; details: Homo sapiens; remark: listed apart in the source
[10] = biological target: T2, Polyadenylate-binding protein 1 (Homo sapiens, UniProt P11940); test: MLLE binding blockers, Cy5 peptide tracer – biochemical, fluorescence polarization, Cy5-PAM2 peptide, secondary, miRNA deadenylation inhibitor project, dose response (AID 602260); type: functional; details: read-out: IC50_Mean
[11] = biological target: Beta-galactosidase (Escherichia coli, UniProt Q8VNN2); test: detection-enzyme interference by beta-gal modulators – biochemical, E. coli enzyme, set 3, artefact control for CCR6 antagonist project, dose response (AID 504712); type: functional
[12] = biological target: T2, Polyadenylate-binding protein 1; test: MLLE domain peptide-binding blockers, IC50 – biochemical, fluorescence polarization, FITC-PAM2 peptide, dose response (AID 602259); type: functional; details: read-out: IC50_Mean
[13] = biological target: Voltage-gated inwardly rectifying potassium channel KCNH2 (Homo sapiens, UniProt Q12809); details: Potency;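 further: confirmatory quantitative high-throughput screen measuring inhibition of hERG channel activity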
Voltage-gated inwardly rectifying potassium channel KCNH2, sequence (Q12809 whole entry): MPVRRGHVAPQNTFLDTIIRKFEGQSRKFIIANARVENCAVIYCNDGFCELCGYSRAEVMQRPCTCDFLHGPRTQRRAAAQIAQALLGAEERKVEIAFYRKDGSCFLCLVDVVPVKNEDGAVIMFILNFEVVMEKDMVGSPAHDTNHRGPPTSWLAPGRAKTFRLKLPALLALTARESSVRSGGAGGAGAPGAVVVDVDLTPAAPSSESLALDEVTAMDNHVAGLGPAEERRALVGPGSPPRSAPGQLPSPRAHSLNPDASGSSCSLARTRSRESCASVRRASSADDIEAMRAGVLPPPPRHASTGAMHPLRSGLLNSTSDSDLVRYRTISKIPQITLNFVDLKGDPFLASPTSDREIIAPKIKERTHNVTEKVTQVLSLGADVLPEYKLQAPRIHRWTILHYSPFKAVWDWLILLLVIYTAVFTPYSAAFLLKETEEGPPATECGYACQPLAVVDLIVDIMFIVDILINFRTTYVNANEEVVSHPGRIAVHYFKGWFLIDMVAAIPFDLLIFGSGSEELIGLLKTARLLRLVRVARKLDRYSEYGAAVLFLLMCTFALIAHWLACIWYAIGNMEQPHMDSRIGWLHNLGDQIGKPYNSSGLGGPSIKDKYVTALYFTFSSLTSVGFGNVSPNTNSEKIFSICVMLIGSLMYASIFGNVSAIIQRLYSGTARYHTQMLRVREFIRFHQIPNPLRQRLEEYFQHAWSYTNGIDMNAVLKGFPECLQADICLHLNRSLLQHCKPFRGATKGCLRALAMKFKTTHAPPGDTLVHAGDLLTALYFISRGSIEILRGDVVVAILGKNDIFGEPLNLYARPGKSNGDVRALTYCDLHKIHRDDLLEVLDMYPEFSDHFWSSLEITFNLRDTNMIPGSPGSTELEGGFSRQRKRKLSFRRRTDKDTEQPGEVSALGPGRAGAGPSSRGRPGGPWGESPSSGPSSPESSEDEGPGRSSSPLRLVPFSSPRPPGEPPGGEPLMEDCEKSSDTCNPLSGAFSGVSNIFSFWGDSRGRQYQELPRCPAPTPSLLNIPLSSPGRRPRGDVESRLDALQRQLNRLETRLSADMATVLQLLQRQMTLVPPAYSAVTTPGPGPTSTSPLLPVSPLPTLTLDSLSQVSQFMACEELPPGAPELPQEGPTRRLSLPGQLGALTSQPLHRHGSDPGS

T2 sequence (P11940 whole entry): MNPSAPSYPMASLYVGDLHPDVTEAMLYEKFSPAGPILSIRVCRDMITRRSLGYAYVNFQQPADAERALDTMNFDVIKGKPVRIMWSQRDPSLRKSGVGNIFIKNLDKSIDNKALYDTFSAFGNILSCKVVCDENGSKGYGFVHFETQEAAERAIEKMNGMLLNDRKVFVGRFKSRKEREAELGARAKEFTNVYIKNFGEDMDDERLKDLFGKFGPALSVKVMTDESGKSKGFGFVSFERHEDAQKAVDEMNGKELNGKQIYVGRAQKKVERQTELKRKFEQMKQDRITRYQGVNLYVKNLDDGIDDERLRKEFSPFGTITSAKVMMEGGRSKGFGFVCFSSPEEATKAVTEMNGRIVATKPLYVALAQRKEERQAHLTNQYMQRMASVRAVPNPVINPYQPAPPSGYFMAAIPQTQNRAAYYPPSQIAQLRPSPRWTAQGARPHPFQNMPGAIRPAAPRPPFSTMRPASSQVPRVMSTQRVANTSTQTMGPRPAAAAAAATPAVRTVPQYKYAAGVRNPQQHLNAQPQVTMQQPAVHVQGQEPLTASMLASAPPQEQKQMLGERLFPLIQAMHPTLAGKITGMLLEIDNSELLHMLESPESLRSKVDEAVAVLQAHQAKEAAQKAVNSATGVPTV
Nuclear receptor subfamily 0 group B member 1, sequence (P51843 whole entry): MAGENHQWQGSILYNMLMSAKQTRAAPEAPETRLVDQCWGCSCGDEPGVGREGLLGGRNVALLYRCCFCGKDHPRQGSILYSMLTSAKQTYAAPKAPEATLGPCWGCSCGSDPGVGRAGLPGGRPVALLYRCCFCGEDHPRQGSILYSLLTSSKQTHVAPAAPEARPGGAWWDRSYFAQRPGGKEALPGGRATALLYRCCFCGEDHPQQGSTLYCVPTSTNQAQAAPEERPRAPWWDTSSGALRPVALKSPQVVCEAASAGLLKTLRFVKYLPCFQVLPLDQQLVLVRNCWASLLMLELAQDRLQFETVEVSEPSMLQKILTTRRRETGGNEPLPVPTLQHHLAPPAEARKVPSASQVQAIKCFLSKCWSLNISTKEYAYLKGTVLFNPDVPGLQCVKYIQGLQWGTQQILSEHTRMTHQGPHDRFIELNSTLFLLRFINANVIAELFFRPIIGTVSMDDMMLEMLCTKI
Beta-galactosidase, sequence (Q8VNN2 whole entry, the tested form may be a part): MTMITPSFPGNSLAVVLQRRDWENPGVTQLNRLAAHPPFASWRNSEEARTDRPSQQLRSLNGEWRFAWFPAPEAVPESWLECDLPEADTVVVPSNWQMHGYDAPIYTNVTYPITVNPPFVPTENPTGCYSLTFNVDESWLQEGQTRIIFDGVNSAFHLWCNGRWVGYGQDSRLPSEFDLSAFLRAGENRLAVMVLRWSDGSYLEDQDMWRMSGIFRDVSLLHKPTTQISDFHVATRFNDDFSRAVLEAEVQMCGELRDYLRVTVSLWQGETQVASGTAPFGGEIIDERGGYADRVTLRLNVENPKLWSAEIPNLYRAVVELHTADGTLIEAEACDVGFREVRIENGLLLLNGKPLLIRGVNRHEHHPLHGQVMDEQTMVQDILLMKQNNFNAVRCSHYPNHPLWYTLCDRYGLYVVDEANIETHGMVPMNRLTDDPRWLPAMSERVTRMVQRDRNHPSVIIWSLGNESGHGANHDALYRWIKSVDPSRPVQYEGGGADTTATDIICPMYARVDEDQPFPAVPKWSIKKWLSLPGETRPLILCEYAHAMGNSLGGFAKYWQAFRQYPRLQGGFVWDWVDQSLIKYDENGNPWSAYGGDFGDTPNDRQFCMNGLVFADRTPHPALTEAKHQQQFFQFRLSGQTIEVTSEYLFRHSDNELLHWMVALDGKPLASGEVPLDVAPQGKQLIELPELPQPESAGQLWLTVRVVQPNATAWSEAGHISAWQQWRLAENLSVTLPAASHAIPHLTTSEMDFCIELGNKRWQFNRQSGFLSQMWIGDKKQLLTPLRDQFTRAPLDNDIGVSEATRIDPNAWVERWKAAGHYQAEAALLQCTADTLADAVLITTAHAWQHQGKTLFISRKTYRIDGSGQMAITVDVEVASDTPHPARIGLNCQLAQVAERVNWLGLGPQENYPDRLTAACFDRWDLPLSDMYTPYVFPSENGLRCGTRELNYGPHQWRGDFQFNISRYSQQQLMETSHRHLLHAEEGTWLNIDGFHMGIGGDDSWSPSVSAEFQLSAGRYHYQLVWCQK
Beta-adrenergic receptor kinase 1, sequence (P25098 whole entry, the tested form may be a part): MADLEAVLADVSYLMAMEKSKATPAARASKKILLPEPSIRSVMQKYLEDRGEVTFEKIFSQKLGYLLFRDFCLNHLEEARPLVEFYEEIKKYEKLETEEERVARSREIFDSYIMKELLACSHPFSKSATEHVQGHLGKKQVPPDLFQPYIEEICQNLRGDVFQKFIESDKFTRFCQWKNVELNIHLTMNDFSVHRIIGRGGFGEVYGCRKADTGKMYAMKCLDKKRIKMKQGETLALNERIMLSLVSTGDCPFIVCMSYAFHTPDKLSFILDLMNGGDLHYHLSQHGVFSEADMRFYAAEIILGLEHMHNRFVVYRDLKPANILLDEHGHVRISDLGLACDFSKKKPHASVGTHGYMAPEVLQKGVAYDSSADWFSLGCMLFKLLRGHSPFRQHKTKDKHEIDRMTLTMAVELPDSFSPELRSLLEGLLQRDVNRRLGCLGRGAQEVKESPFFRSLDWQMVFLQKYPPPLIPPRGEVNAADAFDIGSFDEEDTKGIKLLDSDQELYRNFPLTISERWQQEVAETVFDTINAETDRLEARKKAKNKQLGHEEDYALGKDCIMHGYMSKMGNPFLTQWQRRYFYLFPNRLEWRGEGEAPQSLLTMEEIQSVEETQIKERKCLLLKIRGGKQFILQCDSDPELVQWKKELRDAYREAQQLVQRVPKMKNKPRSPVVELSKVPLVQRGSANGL

For `COC(=O)c1cc2c(s1)-c1ccc(OC)cc1CC2`, the IC50 [1] was > 22.5 µM (inactive), the EC50 [2] was 46.2 µM (active) and the EC50 [3] was 18.7 µM (active). For the same molecule, the IC50 [4] was > 67.5 µM (inactive) and the EC50 [5] was 9.47 µM (active).
With `C#CCSc1nc2sc3c(c2c(=O)n1C)CCC3` the EC50 [6] was 2.72 µM (active) and the IC50 [7] was 6.45 µM (active).
With `CN(C)CCCN1C(=O)c2cccc3c([N+](=O)[O-])ccc(c23)C1=O` the EC50 [8] was > 59.6 µM (inactive), the EC50 [9] was > 59.6 µM (inactive) and the IC50 [10] was > 66 µM (inactive). The IC50 [11] was > 66.6 µM (inactive) and the IC50 [12] was 60.1 µM (inactive).
In the case of `C/C=C(/C)C(=O)O[C@H]1C(C)=C2[C@H]([C@@H]1OC(=O)CCCCCCC)[C@@](C)(OC(C)=O)C[C@@H](OC(=O)CCC)[C@@]1(O)[C@H]2OC(=O)[C@@]1(C)O`, the AC50 [13] is reported as 22.4 µM (inconclusive).
